Results taken from patent US20120328569A1, “INHIBITORS OF HEPATITIS C VIRUS NS5B POLYMERASE” (priority 2010, published 2012).

Each molecule was assayed on HCV genotype 1b replicon (assay: HCV replicon assay, cell ELISA with antibody to replicon-encoded NS3/4A (genotype 1b replicon)). Details: Hepatitis C virus, 96 h, read-out: 1b IC50(nM), HCV genotype 1b replicon; 96 hours incubation; NS3/4A cell ELISA.
Type: cell-based, hepatitis C virus
How it was run: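 Replicon-harbouring cells carrying neomycin phosphotransferase were incubated 96 h with a compound dilution series without G418. Replication was quantified indirectly by a cell ELISA detecting replicon-encoded NS3/4A. IC50 values were calculated relative to DMSO control with a four-parameter fit.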
In the case of `CNC(=O)c1c(-c2ccc(F)cc2)oc2cc(N(C)S(C)(=O)=O)c(-c3ccc(C(=O)N(C)C)c(-c4nc5c(F)cccc5o4)c3)cc12` [Example 655], the IC50 is reported as 2.52 nM.
For `CNC(=O)c1c(-c2ccc(F)cc2)oc2cc(N(C)S(C)(=O)=O)c(-c3ccc(OC)c(-c4cc5ncccc5s4)c3)cc12` [Example 688], the IC50 was 7.53 nM.
In the case of `CNC(=O)c1c(-c2ccc(F)cc2)oc2cc(N(CC3CCS(=O)(=O)C3)S(C)(=O)=O)c(-c3ccc(OC)c(-c4nc5c(F)cc(F)cc5o4)c3)cc12` (centres unmarked) [Example 718], the IC50 is reported as 3.9 nM.
`CNC(=O)c1c(-c2ccc(F)cc2)oc2cc(N(CCC(C)(C)C#N)S(C)(=O)=O)c(-c3ccc(OC)c(-c4nc5c(F)cc(F)cc5o4)c3)cc12` [Example 735] was tested, and the IC50 was 10.5 nM.
With `CNC(=O)c1c(-c2ccc(F)cc2)oc2cc(N(CCCP(=O)(O)O)S(C)(=O)=O)c(-c3ccc(OC)c(-c4nc5c(F)cccc5o4)c3)cc12` [Example 843] the IC50 was 19.5 nM.
`CNC(=O)c1c(-c2ccc(F)cc2)oc2cc(N(C(CF)CF)S(C)(=O)=O)c(-c3ccc(OC)c(-c4nc5c(F)cccc5o4)c3)cc12` [Example 807] showed an IC50 of 46.7 nM.
Work on `CNC(=O)c1c(-c2ccc(F)cc2)oc2cc(N(C)S(C)(=O)=O)c(-c3ccc(N4CCOC4=O)c(-c4nc5c(F)cccc5o4)c3)cc12` [Example 483] yielded an IC50 of 2.48 nM.
`CNC(=O)c1c(-c2ccc(F)cc2)oc2cc(N(CC(O)Cn3ncc4ccccc43)S(C)(=O)=O)c(-c3ccc(OC)c(-c4nc5c(F)cccc5o4)c3)cc12` (centres unmarked) [Example 827] gave an IC50 of 11.8 nM.
With `CNC(=O)c1c(-c2ccc(F)cc2)oc2cc(N(CC3(C)COC3)S(C)(=O)=O)c(-c3ccc(OC)c(-c4nc5c(F)cccc5o4)c3)cc12` [Example 724] the IC50 was 4.47 nM.
`CNC(=O)c1c(-c2ccc(F)cc2)oc2cc(N(C)S(C)(=O)=O)c(-c3ccc(OC)c(-c4nc5c(C(C)(C)C#N)cccc5o4)c3)cc12` [Example 428] gave an IC50 of 29.1 nM.
Work on `CNC(=O)c1c(-c2ccc(F)cc2)oc2cc(N(C)S(C)(=O)=O)c(-c3cc(-c4nc5c(F)cccc5o4)c4oc(=O)[nH]c4c3)cc12` [Example 425] yielded an IC50 of 3.04 nM.

Same assay, conditions: Hepatitis C virus, 96 h, read-out: Replicon 1b IC50 (nM), HCV genotype 1b replicon cells, 96 hours incubation, NS3/4A ELISA readout
With `CNC(=O)c1c(-c2ccc(F)cc2)oc2cc(N(CCC=C(C)C)S(C)(=O)=O)c(-c3ccccc3)cc12` [Example 40, 2-(4-fluorophenyl)-N-methyl-6-[(4-methylpent-3-en-1-yl)(methylsulfonyl)amino]-5-phenyl-1-benzofuran-3-carboxamide] the IC50 was 90 nM.
For `CNC(=O)c1c(-c2ccc(F)cc2)oc2cc(N(C)S(C)(=O)=O)c(-c3cccc(-c4nc5ccc(C#N)cc5[nH]4)c3)cc12` [Example 152, 5-[3-(6-cyano-1H-benzimidazol-2-yl)phenyl]-2-(4-fluorophenyl)-N-methyl-6-[methyl (methylsulfonyl)amino]-1-benzofuran-3-carboxamide], the IC50 was 4 nM.
In the case of `CNC(=O)c1c(-c2ccc(F)cc2)oc2cc(N(C)S(C)(=O)=O)c(-c3ccc(Cl)c(-c4nc5ccc(OC)nc5[nH]4)c3)cc12` [Example 320], the IC50 is reported as 13.1 nM.
`CNC(=O)c1c(-c2ccc(F)cc2)oc2cc(N(C)S(C)(=O)=O)c(-c3cccc(-c4nc5nccnc5o4)c3)cc12` [Example 240] was tested, and the IC50 was 1.9 nM.
Molecule `CCN(c1cc2oc(-c3ccc(F)cc3)c(C(=O)NOC)c2cc1-c1ccccc1)S(C)(=O)=O` [Example 9, 6-[ethyl (methylsulfonyl)amino]-2-(4-fluorophenyl)-N-methoxy-5-phenyl-1-benzofuran-3-carboxamide] has an IC50 of 99 nM.
`CNC(=O)c1c(-c2ccc(F)cc2)oc2cc(N(C)S(C)(=O)=O)c(-c3ccc(F)c(-c4nc5ncccc5o4)c3)cc12` [Example 200] showed an IC50 of 1.6 nM.
With `CNC(=O)c1c(-c2ccc(F)cc2)oc2cc(N(C)S(C)(=O)=O)c(-c3cccc(-c4nc5cccc(F)c5o4)c3)cc12` [Example 160] the IC50 was 7 nM.
In the case of `CNC(=O)c1c(-c2ccc(F)cc2)oc2cc(N(CCCO)S(C)(=O)=O)c(-c3ccccc3)cc12` [Example 28, 2-(4-fluorophenyl)-6-[(3-hydroxypropyl) (methylsulfonyl)amino]-N-methyl-5-phenyl-1-benzofuran-3-carboxamide], the IC50 is reported as 46 nM.
Molecule `CNC(=O)c1c(-c2ccc(F)cc2)oc2cc(N(C)S(C)(=O)=O)c(-c3cccc(C#N)c3)cc12` [Example 84, 5-(3-cyanophenyl)-2-(4-fluorophenyl)-N-methyl-6-[methyl (methylsulfonyl)amino]-1-benzofuran-3-carboxamide] has an IC50 of 107 nM.
In the case of `CNC(=O)c1c(-c2ccc(F)cc2)oc2cc(N(C)S(C)(=O)=O)c(-c3cccc(-c4[nH]c5ccccc5c4C)c3)cc12` [Compound 370], the IC50 is reported as 8.8 nM.
In the case of `CNC(=O)c1c(-c2ccc(F)cc2)oc2cc(N(C)S(C)(=O)=O)c(-c3cccc(-c4nc5cc(C(F)(F)F)ccc5s4)c3)cc12` [Example 149, 2-(4-fluorophenyl)-N-methyl-6-[methyl (methylsulfonyl)amino]-5-{3-[5-(trifluoromethyl)-1,3-benzothiazol-2-yl]phenyl}-1-benzofuran-3-carboxamide], the IC50 is reported as 11 nM.
Work on `CONC(=O)c1c(-c2ccc(F)cc2)oc2cc(N(CCCc3ccccc3)S(C)(=O)=O)c(-c3ccccc3)cc12` [Example 10, 2-(4-fluorophenyl)-N-methoxy-6-[(methylsulfonyl) (3-phenylpropyl)amino]-5-phenyl-1-benzofuran-3-carboxamide] yielded an IC50 of 221 nM.
`CNC(=O)c1c(-c2ccc(F)cc2)oc2cc(N(C)S(C)(=O)=O)c(-c3ccc(Cl)c(-c4nc5cncnc5[nH]4)c3)cc12` [Example 347] showed an IC50 of 8.1 nM.
With `CNC(=O)c1c(-c2ccc(F)cc2)oc2cc(N(C)S(C)(=O)=O)c(-c3cccc(-c4noc5ccccc45)c3)cc12` [Example 138, 5-[3-(1,2-benzisoxazol-3-yl)phenyl]-2-(4-fluorophenyl)-N-methyl-6-[methyl (methylsulfonyl)amino]-1-benzofuran-3-carboxamide] the IC50 was 9 nM.
`CNC(=O)c1c(-c2ccc(F)cc2)oc2cc(N(C)S(C)(=O)=O)c(-c3ccc(OC)c(-c4nc5ccccc5o4)c3)cc12` [Example 183] was tested, and the IC50 was 1.5 nM.
Molecule `CNC(=O)c1c(-c2ccc(F)cc2)oc2cc(N(C)S(C)(=O)=O)c(-c3ccc(OC)c(-c4cc5cccc(F)c5[nH]4)c3)cc12` [Compound 374] has an IC50 of 52.4 nM.
Work on `CNC(=O)c1c(-c2ccc(F)cc2)oc2cc(N(C)S(C)(=O)=O)c(-c3cccc(-c4ccc5cccnc5c4)c3)cc12` [Example 353] yielded an IC50 of 4.2 nM.
In the case of `CNC(=O)c1c(-c2ccc(F)cc2)oc2cc(N(CCN3CCOCC3)S(C)(=O)=O)c(-c3cccc(-c4nc5ncccc5o4)c3)cc12` [Example 397, 2-(4-fluorophenyl)-N-methyl-6-(N-(2-morpholinoethyl)methylsulfonamido)-5-(3-(oxazolo[4,5-b]pyridin-2-yl)phenyl)benzofuran-3-carboxamide], the IC50 is reported as 3.6 nM.
Molecule `CNC(=O)c1c(-c2ccc(F)cc2)oc2cc(N(C)S(C)(=O)=O)c(-c3cc(OC)cc(-c4cc5ccccc5[nH]4)c3)cc12` [Compound 375] has an IC50 of 2.7 nM.
Work on `CNC(=O)c1c(-c2ccc(F)cc2)oc2cc(N(C)S(C)(=O)=O)c(-c3ccc(OC)c(-c4nc5cccnc5s4)c3)cc12` [Example 271] yielded an IC50 of 1.5 nM.
Molecule `CNC(=O)c1c(-c2ccc(F)cc2)oc2cc(N(C)S(C)(=O)=O)c(-c3ccc(Cl)c(-c4nc5ccccc5o4)c3)cc12` [Example 177] has an IC50 of 7.4 nM.
